# In US20180289666A1, “FLAVONOLIGNANS FOR TREATMENT OF AUTOIMMUNE INFLAMMATORY DISEASES” (Macau University of Science and Technology, priority 2017, published 2018):
# What was measured:
# Type in all cases: in vivo, Sprague-Dawley (SD) rats
# [1] = system: key enzymes involved in lipid metabolism in liver; experiment: Real-time PCR and Western blot of lipid metabolism enzymes in liver of AIA rats
# Experimental: Total RNA was isolated from the frozen liver of the AIA model using TRIzol® Reagent (Life technology, USA). mRNA was purified by binding to poly(dT) magnetic beads using Dynabeads® mRNA DIRECT™ Kit (Life technology, Norway) and reverse transcribed using SuperScript® III reverse transcriptase (Invitrogen, California, USA) as described by the manufacturer. Quantitative real-time PCR was performed using SYBR Green (Sigma-Aldrich, Louis, USA) on the ViiA™ 7 Real-Time PCR System (Applied Biosystems, FosterCity, USA). Quantitative RT-PCR analysis was performed using SYBR Green reagents and ViiA™ 7 Real-Time PCR System. Gene expression levels were calculated from cycle threshold (Ct) values and normalized with control gene GAPDH.
# Liver tissue homogenates of AIA and MCD animal models were lysed in RIPA buffer (50 mM pH 7.4 Tris, 150 mM NaCl, 1% Triton X-100, 1% sodium deoxycholate, 0.1% SDS, sodium orthovanadate, sodium fluoride and EDTA) containing protease inhibitor cocktails (Roche Life Science, USA). Protein concentration was determined using the BCA protein assay kit (BIO-RAD, USA). Equal amounts of total protein were resolved using SDS-PAGE and transferred onto PVDF membranes (Millipore, Darmstadt, Germany). After incubation in a blocking solution containing with 5% (w/v) skim milk (Nestle Carnation, New Zealand) in TBST buffer (10 mM tris-buffered saline and 0.1% Tween20) for 1 h at room temperature and incubated with primary antibodies overnight at 4° C. The membranes were washed three times with 1×TBST solutions and incubated with the appropriate secondary antibodies at room temperature for 45 min, and subsequently visualized with an enhanced chemiluminescence detection kit (SuperSignal™ West Pico Chemiluminescent Substrate, Thermo Scientific, USA). β-actin was used as the loading control for the experimental data analysis.
# AIA rats [2] = experiment: Radiological and histopathological examination of hind paws / ankle joints of AIA rats
# Experimental: (§1) Disease severity and progression were evaluated by measurements of both hind paw volumes with a plethysmometer chamber (Yiyan technology, Jinan, China) and body weight with a 0.1 g precision balance (Sartorius AG, Göttingen, Germany) every two or three days after arthritis induction. For evaluation the arthritic scoring, the lesions of four paws of each rat (i.e., the arthritic signs) were graded by two separate investigators with a semi-quantitative scale: 0 (normal), 4-8 (mild changes), 8-12 (moderate changes), and 12-16 (severe changes) (van Eden W., et. al., J. E. Coligan, Editor. 2001, John Wiley: New York. p. 1-11). Erythrocyte sedimentation rate (ESR) was determined with ICSH (International Council for Standardization in Hematology) selected method with little modifications at day 42. Briefly, 120 μl of blood sample was taken directly and put into 30 μl of 0.109 mol/L sodium citrate, mixed well, and then transferred into a 1.0 mm×100 mm capillary tube (West China Medical University, ChengDu, China). The tubes were held obliquely at an angle of […] and the erythrocyte sedimentation rate was recorded at 15 min. The cytokines levels including IL-1β, TNF-α, IL-17, IL-33, MMP-9, TIMP-1 and PGE2 in serum were measured using commercially available ELISA kits according to the manufacturers instructions. At the end of the experiments, rat knee images were measured (mean of three readings per knee, Meinaite digital calliper, ShangHai, China) using a IVIS Lumina XRMS Series (PerkinElmer, America) (Esser, R. E., et al., Arthritis Rheum, 1995, 38(1): p. 129-38).
# For histopathological assessment, arthritic paws were collected on day 42 after X-ray check, fixed with 10% phosphate buffered saline (PBS) buffered formalin, and decalcified for 3 days in formic acid. Sections from paraffin-embedded tissue were stained with hematoxylin and eosin (H&E). The obtained plasma was stored in −70° C. for metabolomic studies. The relative organ weight ratios (such as liver index, spleen index, kidney index, lung index) were calculated by dividing the weight of each organ with the body weight.
# [3] = system: IL-1β, TNF-α, IL-33, MMP-9, TIMP-1 and PGE2 in serum; experiment: Serum cytokine levels by ELISA in AIA rats; conditions: 42 days treatment, versus vehicle-treated AIA rats
# Experimental: as §1
# AIA rats [4] = experiment: Assessment of liver abnormality and lipid profile in AIA model
# Experimental: Serum ALT, AST, ALP, GGT and total bilirubin were measured by automatic biochemical analyzer (Toshiba Corporation, Tokyo, Japan). Lipids profile including TG, TC, HDL-C, LDL-C/vLDL-C and free fatty acids were measured in the serum. After animals were sacrificed, tissues of liver were fixed in 10% formalin solution, cleared in xylene, embedded in paraffin blocks from which 5 micron-thick sections were obtained. Sections were stained with H&E dye and examined for pathological changes under light microscope by a pathologist blind to the specimens.
smiles,measurement,setting,value
COc1cc([C@H]2Oc3cc([C@H]4Oc5cc(O)cc(O)c5C(=O)[C@@H]4O)ccc3O[C@@H]2CO)ccc1O (stereo in doubt) [Silybin],expression of aP2 in the liver,[1]; AIA rats liver,reduced
same,"mRNA and/or protein expression of LPL, CYP7A1, and SREBP1 in liver",[1]; AIA rats liver,greatly repressed
same,overexpression of SREBP1,[1]; AIA rats liver,not modulated
same,"increased mRNA levels of hepatic lipogenesis genes (SREBP1, LXR, FXR)","[1]; AIA rats liver, real-time PCR",attenuated
same,changes of key lipogenic enzyme in both gene and protein levels,"[1]; AIA rats liver, real-time PCR and Western blot",ameliorated changes
same,mRNA level of LPL in liver,"[1]; AIA rats, real-time PCR, increase in the AIA model group",reversed
same,cartilage and joint destruction of the arthritic joints (radiographs),"AIA rats [2]; Silybin 100 mg/kg or 200 mg/kg, day 42",ameliorated
same,"infiltration of inflammatory cells, synovial hyperplasia","AIA rats [2]; ankle joint sections, H&E",diminished
same,histological grade of representative ankle joint sections,"AIA rats [2]; day 42, H&E, FIG. 2C (MTX; Silybin 200 mg/kg), vehicle-treated AIA grade 2/3",0
same,serum level of IL-1β,[3],significant decrease
same,serum level of MMP-9,[3],significant decrease
same,serum level of PGE2,[3],significant decrease
same,serum level of TIMP-1,[3],significant decrease
same,serum level of TNF-α,[3],significant decrease
same,histopathological assessment of liver tissue,AIA rats [4]; H&E liver sections,preserved the normal architecture of hepatocytes with light congestion of central vein
same,dyslipidemia (serum lipid profile),AIA rats [4]; Silybin 200 mg/kg,successfully improved
same,ALP level,"AIA rats [4]; Silybin 200 mg/kg, P<0.001",markedly reduced
same,AST level,"AIA rats [4]; Silybin 200 mg/kg, P<0.05",markedly reduced
